Test results from patent US12037325B2, “1,2-diaminobenzimidazole derivative” (Carna Biosciences, Inc., priority 2021, dated 2024).
Where a name gives a salt, the structure may show the parent alone.

Key:
hSTING = target: T1, hSTING (Homo sapiens, UniProt Q86WV6); assay: Inhibition test of intracellular human STING (hSTING) pathways using reporter cells (HEK-Blue ISG, SEAP reporter); assay type: cell-based; conditions: stimulation with Compound 3 (10 nM), 21 hours; for IC50: read-out: Inhibitory Activity on hSTING
T1 construct: host or cells: HEK-Blue ISG cells (HEK293-derived SEAP reporter line)
Description: Since STING activates the transcription factor IRF3 by ligand stimulation, the activity of STING can be evaluated by a reporter assay using a secreted alkaline phosphatase (SEAP reporter) incorporated downstream of the IRF-inducible promoter. In other words, the hSTING inhibitory activity of the test compounds was evaluated using HEK-Blue™ ISG cells (manufactured by InvivoGen, #hkb-isg-1) into which the SEAP reporter was incorporated. The activation of hSTING was performed by stimulation with the small molecule ligand, Compound 3 as described in the literature (Ramanjulu, J. M., et al., Nature. 2018, 564 (7736), 439-443).
The HEK-Blue™ ISG cells were seeded in 96-well plates and cultured overnight at 37° C. in a 5% CO2 incubator. To each well of the cell culture plates, a test compound solution adjusted to have a final concentration of 0.1 to 10 μM was added and cultured in the CO2 incubator for 1 hour. Then, the Compound 3 (final concentration of 10 nM) was added thereto and further cultured in the CO2 incubator for 21 hours. After collecting the culture supernatant from each well, the reporter activity was measured by luminous reaction of alkaline phosphatase.
(§1) Method for Evaluating Inhibitory Activity. Taking the reporter activity in the group without test compounds added and with Compound 3 added as 100% and the reporter activity in the group without test compounds added and without Compound 3 added as 0%, IC50 values were determined by regression analysis of the inhibition rate calculated from the reporter activity at each compound concentration and the test compound concentration (logarithm).
Evaluation Result. […] The inhibitory effect on the hSTING was indicated by marking an IC50 value of less than 0.1 μM with ***, that of 0.1 μM or more and less than 1 μM with **, that of 1 μM or more and less than 10 μM with *, and that of 10 μM or more with “-”.

STING = target: T2, STING (Homo sapiens, UniProt Q86WV6, G230A/H232R/R293Q/R71H); assay: Inhibition test of human IFN-β production by cGAMP stimulation in THP-1 cells; assay type: cell-based; conditions: PMA-treated THP-1 cells, 2'3'-cGAMP transfection, 18 hours, ELISA of culture supernatant; read-out: Inhibitory effect on the IFN-β production
T2 construct: host or cells: THP-1 cells, PMA-treated
Description: The human monocytic cell line THP-1 cells were used to measure the amount of IFN-β produced when stimulated with the endogenous ligand cGAMP, thereby evaluating the inhibitory activity of the test compounds on STING activation.
After THP-1 cells (manufactured by ATCC) were seeded in 96-well plates, PMA (manufactured by Santa Cruz Biotechnology, Inc.) adjusted to a concentration after addition of 100 nM was added and cultured overnight at a 37° C. in a 5% CO2 incubator (10% FBS, 50 U/mL penicillin/50 μg/mL streptomycin-containing RPMI 1640 medium). To each well of the plate, a test compound solution adjusted to a final concentration of 0.001-1 μM of the test compound was added and cultured in the CO2 incubator for 1 hour (DMSO final concentration of 0.1%). 0.12 μg/well of 2′3′-cGAMP (manufactured by ChemieTek, #CT-CGAMP) was introduced into the cells by transfection method using Lipofectamine 2000 (manufactured by Invitrogen) and cultured in the CO2 incubator for another 18 hours. After collecting the culture supernatant from each well, the amount of human IFN-P production in the culture supernatant was measured by ELISA method using R&D human IFN-β Duoset (manufactured by R&D systems).
as §1, with “amount of human IFN-β production” for “reporter activity”, “cGAMP” for “Compound 3”
Evaluation Result. […] The inhibitory effect on the IFN-β production was indicated by marking an IC50 value of less than 0.01 μM with ***, that of 0.01 μM or more and less than 0.1 μM with **, that of 0.1 μM or more and less than 1 μM with *, and that of 1 μM or more with “-”, and NT was marked as unmeasured.

T1 sequence (Q86WV6 whole entry H232R): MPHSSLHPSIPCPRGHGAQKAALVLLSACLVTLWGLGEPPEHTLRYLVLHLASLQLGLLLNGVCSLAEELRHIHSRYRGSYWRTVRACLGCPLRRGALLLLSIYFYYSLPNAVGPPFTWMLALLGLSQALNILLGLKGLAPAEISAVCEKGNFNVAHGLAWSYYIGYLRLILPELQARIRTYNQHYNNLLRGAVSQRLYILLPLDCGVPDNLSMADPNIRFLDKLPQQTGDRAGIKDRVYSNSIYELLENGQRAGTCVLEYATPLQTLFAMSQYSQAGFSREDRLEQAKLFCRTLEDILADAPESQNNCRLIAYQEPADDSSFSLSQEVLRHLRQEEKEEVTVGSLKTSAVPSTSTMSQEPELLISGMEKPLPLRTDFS
T2 sequence (Q86WV6 whole entry R71H/G230A/H232R/R293Q): as the sequence (Q86WV6 whole entry H232R) above, with R71H, G230A, R293Q counted along it

Row | SMILES | IC50 (hSTING) [nM] | IC50 (STING) [nM] | Inhibitory Activity on hSTING (hSTING)
1 | Cc1ccc2[nH]cc(Nc3nc4cc(C(F)(F)F)c(F)cc4n3N)c2c1 [Example 9, 6-fluoro-N2-(5-methyl-1H-indol-3-yl)-5-(trifluoromethyl)-1H-benzo[d]imidazole-1,2-diamine hydrochloride] | 100 to 1000 | < 10 | –
2 | CNn1c(Nc2c[nH]c3cc(F)c(F)cc23)nc2cc(C(F)(F)F)c(F)cc21 [Example 10, N2-(5,6-difluoro-1H-indol-3-yl)-6-fluoro-N1-methyl-5-(trifluoromethyl)-1H-benzo[d]imidazole-1,2-diamine] | 100 to 1000 | 10 to 100 | –
3 | Nn1c(Nc2c[nH]c3ccc(F)c(F)c23)nc2cc(C(F)(F)F)ccc21 [Example 11, N2-(4,5-difluoro-1H-indol-3-yl)-5-(trifluoromethyl)-1H-benzo[d]imidazole-1,2-diamine hydrochloride] | 100 to 1000 | 10 to 100 | –
4 | CNn1c(Nc2c[nH]c3ccc(F)c(F)c23)nc2cc(C(F)(F)F)c(F)cc21 [Example 12, N2-(4,5-difluoro-1H-indol-3-yl)-6-fluoro-N1-methyl-5-(trifluoromethyl)-1H-benzo[d]imidazole-1,2-diamine hydrochloride] | 1000 to 10000 | > 1000 | –
5 | CNn1c(Nc2c[nH]c3c(F)cc(F)cc23)nc2cc(C(F)(F)F)cc(F)c21 [Example 13, N2-(5,7-difluoro-1H-indol-3-yl)-7-fluoro-N1-methyl-5-(trifluoromethyl)-1H-benzo[d]imidazole-1,2-diamine hydrochloride] | < 100 | < 10 | –
6 | CCNn1c(Nc2c[nH]c3ccc(Cl)cc23)nc2cc(C(F)(F)F)cc(F)c21 [Example 14, N2-(5-chloro-1H-indol-3-yl)-N1-ethyl-7-fluoro-5-(trifluoromethyl)-1H-benzo[d]imidazole-1,2-diamine] | < 100 | < 10 | –
7 | CCNn1c(Nc2c[nH]c3cc(F)c(F)cc23)nc2cc(C(F)(F)F)ccc21 [Example 15, N2-(5,6-difluoro-1H-indol-3-yl)-N1-ethyl-5-(trifluoromethyl)-1H-benzo[d]imidazole-1,2-diamine] | < 100 | < 10 | –
8 | CNn1c(Nc2c[nH]c3ccc(F)cc23)nc2cc(C(F)(F)F)ccc21 [Example 16, N2-(5-fluoro-1H-indol-3-yl)-N1-methyl-5-(trifluoromethyl)-1H-benzo[d]imidazole-1,2-diamine hydrochloride] | < 100 | < 10 | –
9 | CNn1c(Nc2c[nH]c3ccc(C)c(F)c23)nc2cc(C(F)(F)F)ccc21 [Example 17, N2-(4-fluoro-5-methyl-1H-indol-3-yl)-N1-methyl-5-(trifluoromethyl)-1H-benzo[d]imidazole-1,2-diamine hydrochloride] | < 100 | < 10 | –
10 | CNn1c(Nc2c[nH]c3cc(F)c(C)cc23)nc2cc(C(F)(F)F)ccc21 [Example 18, N2-(6-fluoro-5-methyl-1H-indol-3-yl)-N1-methyl-5-(trifluoromethyl)-1H-benzo[d]imidazole-1,2-diamine] | < 100 | < 10 | –
11 | CCNn1c(Nc2c[nH]c3c(F)cc(F)cc23)nc2cc(C(F)(F)F)ccc21 [Example 19, N2-(5,7-difluoro-1H-indol-3-yl)-N1-ethyl-5-(trifluoromethyl)-1H-benzo[d]imidazole-1,2-diamine] | < 100 | < 10 | –
12 | CC(C)Nn1c(Nc2c[nH]c3ccc(Cl)cc23)nc2cc(C(F)(F)F)ccc21 [Example 20, N2-(5-chloro-1H-indol-3-yl)-N1-isopropyl-5-(trifluoromethyl)-1H-benzo[d]imidazole-1,2-diamine] | – | – | * *
13 | Nn1c(Nc2c[nH]c3c(F)cc(F)cc23)nc2cc(C(F)(F)F)ccc21 [Example 21, N2-(5,7-difluoro-1H-indol-3-yl)-5-(trifluoromethyl)-1H-benzo[d]imidazole-1,2-diamine hydrochloride] | < 100 | 100 to 1000 | –
14 | CCNn1c(Nc2c[nH]c3c(F)cc(F)cc23)nc2cc(C(F)(F)F)cc(F)c21 [Example 22, N2-(5,7-difluoro-1H-indol-3-yl)-N1-ethyl-7-fluoro-5-(trifluoromethyl)-1H-benzo[d]imidazole-1,2-diamine hydrochloride] | < 100 | 10 to 100 | –
15 | CCNn1c(Nc2c[nH]c3cc(F)c(F)cc23)nc2cc(C(F)(F)F)cc(F)c21 [Example 23, N2-(5,6-difluoro-1H-indol-3-yl)-N1-ethyl-7-fluoro-5-(trifluoromethyl)-1H-benzo[d]imidazole-1,2-diamine hydrochloride] | < 100 | 10 to 100 | –
16 | CCCNn1c(Nc2c[nH]c3ccc(Cl)cc23)nc2cc(C(F)(F)F)ccc21 [Example 24, N2-(5-chloro-1H-indol-3-yl)-N1-propyl-5-(trifluoromethyl)-1H-benzo[d]imidazole-1,2-diamine] | < 100 | 10 to 100 | –

Continued, values first:

Row | IC50 (hSTING) [nM] | IC50 (STING) [nM] | Inhibitory Activity on hSTING (hSTING) | SMILES
17 | < 100 | < 10 | – | Nn1c(Nc2c[nH]c3ccc(Cl)cc23)nc2cc(C(F)(F)F)ccc21 [Example 1, N2-(5-chloro-1H-indol-3-yl)-5-(trifluoromethyl)-1H-benzo[d]imidazol-1,2-diamine Hydrochloride]
18 | < 100 | < 10 | – | Nn1c(Nc2c[nH]c3cc(F)c(F)cc23)nc2cc(C(F)(F)F)ccc21 [Example 2, N2-(5,6-difluoro-1H-indol-3-yl)-5-(trifluoromethyl)-1H-benzo[d]imidazol-1,2-diamine Formate]
19 | < 100 | < 10 | – | CNn1c(Nc2c[nH]c3ccc(F)c(F)c23)nc2cc(C(F)(F)F)ccc21 [Example 3, N2-(4,5-difluoro-1H-indol-3-yl)-N1-methyl-5-(trifluoromethyl)-1H-benzo[d]imidazol-1,2-diamine Hydrochloride]
20 | < 100 | < 10 | – | CNn1c(Nc2c[nH]c3cc(F)c(F)cc23)nc2cc(C(F)(F)F)ccc21 [Example 4, N2-(5,6-difluoro-1H-indol-3-yl)-N1-methyl-5-(trifluoromethyl)-1H-benzo[d]imidazol-1,2-diamine]
21 | < 100 | < 10 | – | CNn1c(Nc2c[nH]c3c(F)cc(F)cc23)nc2cc(C(F)(F)F)ccc21 [Example 5, N2-(5,7-difluoro-1H-indol-3-yl)-N1-methyl-5-(trifluoromethyl)-1H-benzo[d]imidazol-1,2-diamine]
22 | < 100 | < 10 | – | CCNn1c(Nc2c[nH]c3ccc(Cl)cc23)nc2cc(C(F)(F)F)ccc21 [Example 6, N2-(5-chloro-1H-indol-3-yl)-N1-ethyl-5-(trifluoromethyl)-1H-benzo[d]imidazol-1,2-diamine Hydrochloride]
23 | < 100 | < 10 | – | Nn1c(Nc2c[nH]c3ccc(Cl)cc23)nc2cc(C(F)(F)F)c(F)cc21 [Example 7, N2-(5-chloro-1H-indol-3-yl)-6-fluoro-5-(trifluoromethyl)-1H-benzo[d]imidazole-1,2-diamine hydrochloride]
24 | < 100 | < 10 | – | CNn1c(Nc2c[nH]c3ccc(C)cc23)nc2cc(C(F)(F)F)c(F)cc21 [Example 8, 6-fluoro-N1-methyl-N2-(5-methyl-1H-indol-3-yl)-5-(trifluoromethyl)-1H-benzo[d]imidazole-1,2-diamine]
